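In this assay, cells in 96-well plates receive the compound at five concentrations for 48 hours. Endpoints are linearly interpolated between the surrounding concentrations. Here, GI50 denotes the concentration required for 50% inhibition of growth.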 Calls of active or inactive are those of the source. Rule as the data show it: active = GI50 up to about 1.1 µM and inactive = higher.
Columns and labels:
Experiment in all cases: NCI anticancer screen, dose series, 48 h
EKVX = tested on: EKVX
HCC 2998 = tested on: HCC 2998
NCI-H460 = tested on: NCI-H460
SK-MEL-5 = tested on: SK-MEL-5
UACC-257 = tested on: UACC-257
MCF7 = tested on: MCF7
HT-29 = tested on: HT-29
DU-145 = tested on: DU-145
SW-620 = tested on: SW-620
KM12 = tested on: KM12
UO-31 = tested on: UO-31
HOP-92 = tested on: HOP-92
LOX IMVI = tested on: LOX IMVI
NCI-H226 = tested on: NCI-H226
MDA-MB-435 = tested on: MDA-MB-435
MOLT-4 = tested on: MOLT-4
PC-3 = tested on: PC-3
SNB-19 = tested on: SNB-19
OVCAR-8 = tested on: OVCAR-8
TK-10 = tested on: TK-10
SF-539 = tested on: SF-539
SK-MEL-2 = tested on: SK-MEL-2
K562 = tested on: K562
SR = tested on: SR
COLO 205 = tested on: COLO 205
T47D = tested on: T47D
OVCAR-5 = tested on: OVCAR-5
UACC-62 = tested on: UACC-62
Hs-578T = tested on: Hs-578T
CCRF-CEM = tested on: CCRF-CEM
SK-OV-3 = tested on: SK-OV-3
MDA-MB-231 = tested on: MDA-MB-231
BT-549 = tested on: BT-549
M14 = tested on: M14
A498 = tested on: A498
HCT-116 = tested on: HCT-116
NCI-H23 = tested on: NCI-H23
NCI-H522 = tested on: NCI-H522
CAKI-1 = tested on: CAKI-1
OVCAR-4 = tested on: OVCAR-4
IGROV-1 = tested on: IGROV-1
A549 = tested on: A549
Malme-3M = tested on: Malme-3M
HL-60 = tested on: HL-60
SK-MEL-28 = tested on: SK-MEL-28
SN12C = tested on: SN12C
786-0 = tested on: 786-0
SF-295 = tested on: SF-295
SF-268 = tested on: SF-268
HCT-15 = tested on: HCT-15
NCI/ADR-RES = tested on: NCI/ADR-RES
ACHN = tested on: ACHN
U-251 = tested on: U-251
HOP-62 = tested on: HOP-62
RPMI-8226 = tested on: RPMI-8226
RXF 393 = tested on: RXF 393
OVCAR-3 = tested on: OVCAR-3
MDA-N = tested on: MDA-N
SNB-75 = tested on: SNB-75

**Q.** With `CC1(O)CC23CC(O)C4(O)C(CC(O)C4(C)C)C(C)(O)C2CCC1C3O` (stereo not given) as the compound, how does the GI50 (EKVX) read?
**A.** Its GI50 is > 100 µM (inactive).

**Q.** What about the GI50 (HCC 2998) of the same compound?
**A.** The GI50 was > 100 µM (inactive).

**Q.** And the GI50 (NCI-H460)?
**A.** The GI50 was > 100 µM (inactive).

**Q.** And the GI50 (SK-MEL-5)?
**A.** The GI50 was > 100 µM (inactive).

**Q.** What about the GI50 (UACC-257) of the same compound?
**A.** The GI50 was > 100 µM (inactive).

**Q.** What about the GI50 (MCF7) of the same compound?
**A.** Its GI50 is > 100 µM (inactive).

**Q.** And the GI50 (HT-29)?
**A.** The GI50 was > 100 µM (inactive).

**Q.** What about the GI50 (DU-145) of the same compound?
**A.** Its GI50 is > 100 µM (inactive).

**Q.** What about the GI50 (SW-620) of the same compound?
**A.** The GI50 was > 100 µM (inactive).

**Q.** And the GI50 (KM12)?
**A.** Its GI50 is > 100 µM (inactive).

**Q.** And the GI50 (UO-31)?
**A.** Its GI50 is > 100 µM (inactive).

**Q.** And the GI50 (HOP-92)?
**A.** Its GI50 is > 100 µM (inactive).

**Q.** What about the GI50 (LOX IMVI) of the same compound?
**A.** Its GI50 is > 100 µM (inactive).

**Q.** What about the GI50 (NCI-H226) of the same compound?
**A.** Its GI50 is > 100 µM (inactive).

**Q.** And the GI50 (MDA-MB-435)?
**A.** The GI50 was > 100 µM (inactive).

**Q.** What about the GI50 (MOLT-4) of the same compound?
**A.** The GI50 was > 100 µM (inactive).

**Q.** What about the GI50 (PC-3) of the same compound?
**A.** Its GI50 is > 100 µM (inactive).

**Q.** And the GI50 (SNB-19)?
**A.** The GI50 was > 100 µM (inactive).

**Q.** And the GI50 (OVCAR-8)?
**A.** The GI50 was > 100 µM (inactive).

**Q.** What about the GI50 (TK-10) of the same compound?
**A.** The GI50 was > 100 µM (inactive).

**Q.** What about the GI50 (SF-539) of the same compound?
**A.** Its GI50 is > 100 µM (inactive).

**Q.** What about the GI50 (SK-MEL-2) of the same compound?
**A.** The GI50 was > 100 µM (inactive).

**Q.** And the GI50 (K562)?
**A.** The GI50 was > 100 µM (inactive).

**Q.** And the GI50 (SR)?
**A.** The GI50 was > 100 µM (inactive).

**Q.** What about the GI50 (COLO 205) of the same compound?
**A.** Its GI50 is > 100 µM (inactive).

**Q.** What about the GI50 (T47D) of the same compound?
**A.** Its GI50 is > 100 µM (inactive).

**Q.** What about the GI50 (OVCAR-5) of the same compound?
**A.** The GI50 was > 100 µM (inactive).

**Q.** What about the GI50 (UACC-62) of the same compound?
**A.** Its GI50 is > 100 µM (inactive).

**Q.** What about the GI50 (Hs-578T) of the same compound?
**A.** Its GI50 is > 100 µM (inactive).

**Q.** What about the GI50 (CCRF-CEM) of the same compound?
**A.** Its GI50 is > 100 µM (inactive).

**Q.** What about the GI50 (SK-OV-3) of the same compound?
**A.** The GI50 was > 100 µM (inactive).

**Q.** What about the GI50 (MDA-MB-231) of the same compound?
**A.** The GI50 was > 100 µM (inactive).

**Q.** And the GI50 (BT-549)?
**A.** Its GI50 is > 100 µM (inactive).

**Q.** What about the GI50 (M14) of the same compound?
**A.** Its GI50 is > 100 µM (inactive).

**Q.** What about the GI50 (A498) of the same compound?
**A.** The GI50 was > 100 µM (inactive).

**Q.** And the GI50 (HCT-116)?
**A.** The GI50 was > 100 µM (inactive).

**Q.** What about the GI50 (NCI-H23) of the same compound?
**A.** Its GI50 is > 100 µM (inactive).

**Q.** And the GI50 (NCI-H522)?
**A.** The GI50 was > 100 µM (inactive).

**Q.** And the GI50 (CAKI-1)?
**A.** Its GI50 is > 100 µM (inactive).

**Q.** And the GI50 (OVCAR-4)?
**A.** The GI50 was > 100 µM (inactive).

**Q.** And the GI50 (IGROV-1)?
**A.** The GI50 was > 100 µM (inactive).

**Q.** What about the GI50 (A549) of the same compound?
**A.** The GI50 was > 100 µM (inactive).

**Q.** What about the GI50 (Malme-3M) of the same compound?
**A.** Its GI50 is > 100 µM (inactive).

**Q.** And the GI50 (HL-60)?
**A.** The GI50 was > 100 µM (inactive).

**Q.** What about the GI50 (SK-MEL-28) of the same compound?
**A.** Its GI50 is > 100 µM (inactive).

**Q.** What about the GI50 (SN12C) of the same compound?
**A.** The GI50 was > 100 µM (inactive).

**Q.** What about the GI50 (786-0) of the same compound?
**A.** The GI50 was > 100 µM (inactive).

**Q.** What about the GI50 (SF-295) of the same compound?
**A.** The GI50 was > 100 µM (inactive).

**Q.** What about the GI50 (SF-268) of the same compound?
**A.** The GI50 was > 100 µM (inactive).

**Q.** And the GI50 (HCT-15)?
**A.** Its GI50 is over 100 µM.

**Q.** And the GI50 (NCI/ADR-RES)?
**A.** The GI50 was > 100 µM (inactive).

**Q.** What about the GI50 (ACHN) of the same compound?
**A.** The GI50 was > 100 µM (inactive).

**Q.** What about the GI50 (U-251) of the same compound?
**A.** The GI50 was > 100 µM (inactive).

**Q.** Which results are given for `CCN(CC)C(=O)CCNC(C)Cc1c[nH]c2ccccc12` (stereo not given)?
**A.** GI50 (HOP-62): > 100 µM (inactive); GI50 (EKVX): > 100 µM (inactive); GI50 (HCC 2998): > 100 µM (inactive); GI50 (NCI-H460): > 100 µM (inactive); GI50 (SK-MEL-5): > 100 µM (inactive); GI50 (UACC-257): > 100 µM (inactive); GI50 (HT-29): > 100 µM (inactive); GI50 (DU-145): > 100 µM (inactive); GI50 (SW-620): > 100 µM (inactive); GI50 (KM12): > 100 µM (inactive); GI50 (UO-31): > 100 µM (inactive); GI50 (HOP-92): 96.8 µM (inactive); GI50 (LOX IMVI): > 100 µM (inactive); GI50 (NCI-H226): > 100 µM (inactive); GI50 (MDA-MB-435): > 100 µM (inactive); GI50 (MOLT-4): > 100 µM (inactive); GI50 (PC-3): > 100 µM (inactive); GI50 (SNB-19): > 100 µM (inactive); GI50 (RPMI-8226): > 100 µM (inactive); GI50 (OVCAR-8): > 100 µM (inactive); GI50 (TK-10): > 100 µM (inactive); GI50 (SF-539): > 100 µM (inactive); GI50 (SK-MEL-2): > 100 µM (inactive); GI50 (K562): > 100 µM (inactive); GI50 (SR): > 100 µM (inactive); GI50 (COLO 205): > 100 µM (inactive); GI50 (T47D): > 100 µM (inactive); GI50 (OVCAR-5): > 100 µM (inactive); GI50 (UACC-62): > 100 µM (inactive); GI50 (RXF 393): > 100 µM (inactive); GI50 (Hs-578T): > 100 µM (inactive); GI50 (OVCAR-3): > 100 µM (inactive); GI50 (CCRF-CEM): > 100 µM (inactive); GI50 (SK-OV-3): > 100 µM (inactive); GI50 (MDA-MB-231): > 100 µM (inactive); GI50 (M14): > 100 µM (inactive); GI50 (A498): > 100 µM (inactive); GI50 (HCT-116): > 100 µM (inactive); GI50 (NCI-H23): > 100 µM (inactive); GI50 (NCI-H522): > 100 µM (inactive); GI50 (CAKI-1): > 100 µM (inactive); GI50 (MDA-N): > 100 µM (inactive); GI50 (OVCAR-4): > 100 µM (inactive); GI50 (IGROV-1): > 100 µM (inactive); GI50 (A549): > 100 µM (inactive); GI50 (Malme-3M): > 100 µM (inactive); GI50 (HL-60): > 100 µM (inactive); GI50 (SK-MEL-28): > 100 µM (inactive); GI50 (SN12C): > 100 µM (inactive); GI50 (786-0): > 100 µM (inactive); GI50 (SF-295): > 100 µM (inactive); GI50 (SF-268): > 100 µM (inactive); GI50 (HCT-15): > 100 µM; GI50 (NCI/ADR-RES): > 100 µM (inactive); GI50 (ACHN): > 100 µM (inactive); GI50 (U-251): > 100 µM (inactive); GI50 (SNB-75): > 100 µM (inactive)

Source: ChEMBL document CHEMBL1201862, “PubChem BioAssay data set” (2004)
